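Interpolation was linear, between the two tested concentrations surrounding the appropriate level; five concentrations were tested over 48 hours in 96-well plates. Abbreviation: GI50, concentration required for 50% inhibition of growth.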 The source made the active and inactive calls. Rule as the data show it: active = GI50 up to about 1.1 µM and inactive = higher.
Legend:
Test in all cases: DTP human tumour cell line panel, 48 h
MDA-MB-231 = tested on: MDA-MB-231
OVCAR-3 = tested on: OVCAR-3
LOX IMVI = tested on: LOX IMVI
NCI/ADR-RES = tested on: NCI/ADR-RES
A498 = tested on: A498
TK-10 = tested on: TK-10
SNB-19 = tested on: SNB-19
CAKI-1 = tested on: CAKI-1
HCT-116 = tested on: HCT-116
SW-620 = tested on: SW-620
HL-60 = tested on: HL-60
SF-295 = tested on: SF-295
OVCAR-4 = tested on: OVCAR-4
OVCAR-8 = tested on: OVCAR-8
HOP-62 = tested on: HOP-62
SK-MEL-2 = tested on: SK-MEL-2
MCF7 = tested on: MCF7
U-251 = tested on: U-251
RXF 393 = tested on: RXF 393
PC-3 = tested on: PC-3
UACC-62 = tested on: UACC-62
KM12 = tested on: KM12
COLO 205 = tested on: COLO 205
T47D = tested on: T47D
CCRF-CEM = tested on: CCRF-CEM
HOP-92 = tested on: HOP-92
SN12C = tested on: SN12C
RPMI-8226 = tested on: RPMI-8226
HCC 2998 = tested on: HCC 2998
BT-549 = tested on: BT-549
DU-145 = tested on: DU-145
786-0 = tested on: 786-0
IGROV-1 = tested on: IGROV-1
UO-31 = tested on: UO-31
SF-268 = tested on: SF-268
HCT-15 = tested on: HCT-15
NCI-H23 = tested on: NCI-H23
SR = tested on: SR
HT-29 = tested on: HT-29
M14 = tested on: M14
MOLT-4 = tested on: MOLT-4
SK-MEL-28 = tested on: SK-MEL-28
NCI-H460 = tested on: NCI-H460
OVCAR-5 = tested on: OVCAR-5
EKVX = tested on: EKVX
ACHN = tested on: ACHN
SNB-75 = tested on: SNB-75
Hs-578T = tested on: Hs-578T
NCI-H226 = tested on: NCI-H226
NCI-H522 = tested on: NCI-H522
SK-OV-3 = tested on: SK-OV-3
UACC-257 = tested on: UACC-257
K562 = tested on: K562
SK-MEL-5 = tested on: SK-MEL-5
A549 = tested on: A549
MDA-MB-435 = tested on: MDA-MB-435

`Cn1c(=O)c2c(nc3n(Cc4ccccc4)c(=O)c(NCCCBr)cn23)n(C)c1=O` was tested, and the GI50 (MDA-MB-231) was 64.9 µM (inactive), the GI50 (OVCAR-3) was > 100 µM (inactive) and the GI50 (LOX IMVI) was 99.1 µM (inactive). For the same molecule, the GI50 (NCI/ADR-RES) was > 100 µM (inactive), the GI50 (A498) was > 100 µM (inactive) and the GI50 (TK-10) was 38.5 µM (inactive). The GI50 (SNB-19) was 64.4 µM (inactive), the GI50 (CAKI-1) was > 100 µM (inactive) and the GI50 (HCT-116) was 54 µM (inactive). The GI50 (SW-620) was > 100 µM (inactive), the GI50 (HL-60) was > 100 µM (inactive) and the GI50 (SF-295) was 31.8 µM (inactive). For the same molecule, the GI50 (OVCAR-4) was > 100 µM (inactive), the GI50 (OVCAR-8) was 84.9 µM (inactive) and the GI50 (HOP-62) was 26.5 µM (inactive). The GI50 (SK-MEL-2) was > 100 µM (inactive), the GI50 (MCF7) was > 100 µM (inactive) and the GI50 (U-251) was 34.1 µM (inactive). For the same molecule, the GI50 (RXF 393) was 71 µM (inactive), the GI50 (PC-3) was > 100 µM (inactive) and the GI50 (UACC-62) was > 100 µM (inactive). The GI50 (KM12) was > 100 µM (inactive), the GI50 (COLO 205) was > 100 µM (inactive) and the GI50 (T47D) was > 100 µM (inactive). For the same molecule, the GI50 (CCRF-CEM) was > 100 µM (inactive), the GI50 (HOP-92) was 18.1 µM (inactive) and the GI50 (SN12C) was > 100 µM (inactive). The GI50 (RPMI-8226) was > 100 µM (inactive), the GI50 (HCC 2998) was > 100 µM (inactive) and the GI50 (BT-549) was > 100 µM (inactive). The GI50 (DU-145) was > 100 µM (inactive), the GI50 (786-0) was 23.9 µM (inactive) and the GI50 (IGROV-1) was 46.7 µM (inactive). For the same molecule, the GI50 (UO-31) was > 100 µM (inactive), the GI50 (SF-268) was 41.2 µM (inactive) and the GI50 (HCT-15) was greater than 100 µM. For the same molecule, the GI50 (NCI-H23) was > 100 µM (inactive), the GI50 (SR) was 23 µM (inactive) and the GI50 (HT-29) was > 100 µM (inactive). The GI50 (M14) was > 100 µM (inactive), the GI50 (MOLT-4) was 19.2 µM (inactive) and the GI50 (SK-MEL-28) was > 100 µM (inactive). For the same molecule, the GI50 (NCI-H460) was > 100 µM (inactive), the GI50 (OVCAR-5) was > 100 µM (inactive) and the GI50 (EKVX) was 43.6 µM (inactive). The GI50 (ACHN) was 32.6 µM (inactive), the GI50 (SNB-75) was 24.8 µM (inactive) and the GI50 (Hs-578T) was 27.3 µM (inactive). The GI50 (NCI-H226) was 31.5 µM (inactive), the GI50 (NCI-H522) was 54.3 µM (inactive) and the GI50 (SK-OV-3) was 36.6 µM (inactive). For the same molecule, the GI50 (UACC-257) was > 100 µM (inactive), the GI50 (K562) was > 100 µM (inactive) and the GI50 (SK-MEL-5) was > 100 µM (inactive). The GI50 (A549) was > 100 µM (inactive) and the GI50 (MDA-MB-435) was > 100 µM (inactive).

From ChEMBL document CHEMBL1201862, “PubChem BioAssay data set” (2004)
